Tests used:
[1] = tested on: human glioblastoma cell line U-87MG; experiment: In vitro antitumor/anticancer testing (CCK-8), U-87MG; type: cell-based; details: 48 h
Method: Each of Tea Product 1 and Conventional Tea Product obtained in section A of this example was used to prepare test tea samples according to the method described below. A proper amount of the respective tea product was added into sterile water to prepare a stock solution with a concentration of 100 mg/mL, followed by using a membrane filter with a pore size of 0.22 μm to conduct vacuum filtration and sterilization. The resulting stock solution was diluted with a respective complete medium shown in Table 3 below to form test tea samples with different concentrations. In other words, the thus obtained test tea samples to be used for treating a respective cancer/tumor cell line shown in Table 3 were prepared using the same complete medium as that for the respective cancer/tumor cell line. […] Specifically, each of the aforesaid commercially available agents was subjected to the method described below to prepare comparative test samples. A proper amount of a respective commercially available agent was dissolved in phosphate-buffered saline (PBS) to prepare a stock solution with a concentration of 5 mg/mL, followed by using a membrane filter with a pore size of 0.22 μm to conduct vacuum filtration and sterilization. The resulting stock solution was diluted with a respective complete medium shown in Table 3 below to form comparative test samples with different concentrations. To be specific, the comparative test samples prepared from the respective commercially available agent have the concentrations shown in Table 2 below. The thus obtained comparative test samples to be used for treating a respective cancer/tumor cell line shown in Table 3 were prepared using the same complete medium as that for the respective cancer/tumor cell line. […] The cultivation of each cancer/tumor cell line is described as follows. […] Afterwards, a cell suspension having a cell density of 1.0×10^4 cells/mL was prepared. […] As experimental groups, the tumor/cancer cells of each cell line were treated with the test tea samples prepared from one or more of the tea products and the comparative test samples prepared from one or more of the commercially available agents as obtained in section B of this example (for more detailed information about the tea product(s) and the commercially available product (s) used to treat each cell line, please see Table 4 below). To be specific, 6 to 10 test tea samples prepared from the same tea product and having different concentrations, as well as 6 to 10 comparative test samples prepared from the same commercially available agent and having different concentrations, were utilized to treat the tumor/cancer cells of each cell line. For each experimental group, 6 repetitions of tumor/cancer treatment were performed. For the control group, 100 μL of PBS was added to a well containing the medium and the cancer/tumor cells of the respective cell line. For the blank group, 100 μL of PBS was added to a well containing a complete medium the same as that used for cultivation of the cancer/tumor cells of the respective cell line. After the treatment described above, cultivation was conducted in an incubator (37° C., 100% relative humidity, 5% CO2) for 48 hours. Subsequently, the liquid containing the medium and the sample in the well was removed, and a respective complete medium (shown in Table 3 above) containing 10% CCK-8 (Cell Counting Kit-8)(Dojindo Molecular Technologies, Inc., Cat. No. CK04-13) was added. Cultivation was performed in an incubator (37° C.) for 2 to 4 hours, followed by gently shaking.

[2] = tested on: human prostate cancer cell line PC-3; experiment: In vitro antitumor/anticancer testing (CCK-8), PC-3; type: cell-based; details: 48 h
Method: Each of Tea Product 1 and Conventional Tea Product obtained in section A of this example was used to prepare test tea samples according to the method described below. A proper amount of the respective tea product was added into sterile water to prepare a stock solution with a concentration of 100 mg/mL, followed by using a membrane filter with a pore size of 0.22 μm to conduct vacuum filtration and sterilization. The resulting stock solution was diluted with a respective complete medium shown in Table 3 below to form test tea samples with different concentrations. In other words, the thus obtained test tea samples to be used for treating a respective cancer/tumor cell line shown in Table 3 were prepared using the same complete medium as that for the respective cancer/tumor cell line.
Specifically, each of the aforesaid commercially available agents was subjected to the method described below to prepare comparative test samples. A proper amount of a respective commercially available agent was dissolved in phosphate-buffered saline (PBS) to prepare a stock solution with a concentration of 5 mg/mL, followed by using a membrane filter with a pore size of 0.22 μm to conduct vacuum filtration and sterilization. The resulting stock solution was diluted with a respective complete medium shown in Table 3 below to form comparative test samples with different concentrations. To be specific, the comparative test samples prepared from the respective commercially available agent have the concentrations shown in Table 2 below. The thus obtained comparative test samples to be used for treating a respective cancer/tumor cell line shown in Table 3 were prepared using the same complete medium as that for the respective cancer/tumor cell line.
The following cancer/tumor cells purchased from Chinese Academy of Sciences, Shanghai Institutes for Biological Sciences, Institute of Biochemistry and Cell Biology were used for in vitro antitumor/anticancer testing: human liver cancer cell line HepG2, human ovarian cancer cell line SK-OV-3, human cervical cancer cell line Hela, human lung cancer cell line A549, human glioblastoma cell line U-87MG, human mammary gland/duct cancer cell line BT-474, human prostate cancer cell line PC-3, human leukemia cell line HL-60, human gastric cancer cell line SMMC-7721, human colon cancer cell line HCT-116, human squamous cell carcinoma cell line A431, human leukemia cell line K562, human pancreatic cancer cell line PANC-1, and human gastric cancer cell line BGC-823.
The cultivation of each cancer/tumor cell line is described as follows. The cancer/tumor cancer cells were cultivated in the respective complete medium supplemented with 100 μg/mL penicillin and 100 μg/mL streptomycin in an incubator (37° C., 100% relative humidity, 5% CO2). When adherent cancer/tumor cells reached 80% confluence during the log-phase, cell detachment was conducted using 0.6 mL of 0.3% trypsin. Afterwards, a cell suspension having a cell density of 1.0×10^4 cells/mL was prepared. 100 μL of the cell suspension (i.e. 1000 cancer/tumor cells) was added into wells of a 96-well plate (Cat. No. 3599, Corning Costar), followed by cultivation in an incubator (37° C., 100% relative humidity, 5% CO2) for 24 hours.
As experimental groups, the tumor/cancer cells of each cell line were treated with the test tea samples prepared from one or more of the tea products and the comparative test samples prepared from one or more of the commercially available agents as obtained in section B of this example (for more detailed information about the tea product(s) and the commercially available product (s) used to treat each cell line, please see Table 4 below). To be specific, 6 to 10 test tea samples prepared from the same tea product and having different concentrations, as well as 6 to 10 comparative test samples prepared from the same commercially available agent and having different concentrations, were utilized to treat the tumor/cancer cells of each cell line. […]

- IC50 ([1]; U-87MG): IC50 (μg/mL) = 76.85
- IC50 ([2]; PC-3): IC50 (μg/mL) = 39.51
Structure (SMILES): O=C(O[C@@H]1Cc2c(O)cc(O)cc2O[C@@H]1c1cc(O)c(O)c(O)c1)c1cc(O)c(O)c(O)c1 [EGCG monomer, epigallocatechin gallate]
- Percent growth inhibition ([1]; 2.5 μg/mL): 2.29%
- Percent growth inhibition ([1]; 5 μg/mL): 2.94%
- Percent growth inhibition ([1]; 10 μg/mL): 5.82%
- Percent growth inhibition ([1]; 20 μg/mL): 15.72%
- Percent growth inhibition ([1]; 40 μg/mL): 15.15%
- Percent growth inhibition ([1]; 80 μg/mL): 2.45%
- Percent growth inhibition ([1]; 160 μg/mL): 82.81%
- Percent growth inhibition ([1]; 320 μg/mL): 98.43%
- Percent growth inhibition ([1]; 640 μg/mL): 98.03%
- Percent growth inhibition ([2]; 2.5 μg/mL): 16.69%
- Percent growth inhibition ([2]; 7 μg/mL): 19.10%
- Percent growth inhibition ([2]; 10 μg/mL): 19.64%
- Percent growth inhibition ([2]; 20 μg/mL): 26.03%
- Percent growth inhibition ([2]; 40 μg/mL): 40.11%
- Percent growth inhibition ([2]; 80 μg/mL): 74.43%
- Percent growth inhibition ([2]; 160 μg/mL): 86.71%
- Percent growth inhibition ([2]; 320 μg/mL): 96.31%
- Percent growth inhibition ([2]; 640 μg/mL): 92.53%
